From patent publication US20200330420A1, “LONG CHAIN FATTY ACID FORMULATIONS AND THEIR USE IN INHIBITING SALMONELLA INFECTION” (priority 2019, published 2020)

Key:
hilA expression = assay: Luciferase assay, hilA::luxCDABE reporter fusion; type: cell-based
Source text: (§1) Strains. Salmonella enterica subsp. enterica serovar Typhimurium 14028s, and mutants thereof, were used throughout. Deletion mutants were constructed as previously described (K. A. Datsenko et al., PNAS USA, 97(12), 6640-6645, 2000). Briefly, PCR fragments of kanamycin and chloramphenicol resistance genes containing 40 base pair homology extensions flanking the gene of interest were generated using pKD4 and pKD3 plasmids. The PCR fragments were transformed into a strain expressing λ Red recombinase. Loss of the gene of interest was confirmed using PCR. Unmarked mutants were generated using a helper plasmid pCP20 carrying a gene encoding the FLP recombinase. Marked deletions and constructs were transferred using bacteriophage P22 transduction (N. L. Sternberg et al., Methods Enzymol., 204, 18-43, 1991).
Luciferase assays. Strains carrying luxCDABE reporter fusions were grown overnight in LB with the necessary antibiotics. Overnight cultures were diluted 100-fold into M9 minimal medium with glucose, antibiotics and 1 mM nonanoic acid (added to repress SPI invasion gene expression to eliminate background luminescence), and grown overnight. The cultures were washed three times with PBS. Bacteria were inoculated at a starting OD600 of 0.02 into 150 μL of LB containing 100 mM MOPS pH 6.7, the necessary antibiotics and compounds to be tested, in a sealed black-walled 96 well plate. Luminescence was measured every 30 minutes for 24 hours using a Biotek Synergy™ H1 microplate reader.

sopB expression = assay: Luciferase assay, sopB::luxCDABE reporter fusion; type: cell-based; conditions: ΔhilD mutant, rtsA under tetracycline-inducible promoter; 20 μM; FIG. 4A
Source text: as §1
Luciferase assays. Strains carrying luxCDABE reporter fusions were grown overnight in LB with the necessary antibiotics. Overnight cultures were diluted 100-fold into M9 minimal medium with glucose, antibiotics and 1 mM nonanoic acid (added to repress SPI invasion gene expression to eliminate background luminescence), and grown overnight. The cultures were washed three times with PBS. […] Luminescence was measured every 30 minutes for 24 hours using a Biotek Synergy™ H1 microplate reader.

HilC = HilC (Salmonella typhimurium, UniProt P0CL09); assay: Electrophoretic mobility shift assay, HilC binding to hilA promoter DNA; conditions: FIG. 7
Procedure: (§2) Electrophoretic mobility shift assays (EMSAs). EMSAs were performed as previously described (Y. A. Golubeva et al., M Bio, 7(1), 2016). Briefly, 10 nM of hilA promoter DNA was mixed with 150 μM HilD, HilC or RtsA in a binding buffer containing 20 mM KCl, 1% glycerol, 1 mM DTT, 0.04 mM EDTA, 0.05% Tergitol™ NP-40 and 20 mM HEPES, pH 7.3. cis-2-hexadecenoic acid was tested at concentrations of […] Binding was performed at room temperature for 20 minutes. Samples were separated on 6% Novex® TBE DNA retardation gels, and DNA was stained using SYBR® green (Invitrogen).

RtsA = assay: Electrophoretic mobility shift assay, RtsA binding to hilA promoter DNA; set-up: species or system Salmonella; conditions: FIG. 7
Procedure: as §2

HilD [1] = target: T1, HilD (Salmonella typhimurium, UniProt P0CL08); assay: Electrophoretic mobility shift assay, HilD binding to hilA promoter DNA; set-up: 6xHis-NusA (followed by an HRV 3C protease site) (N, cleaved yes); made in house; host or cells: E. coli BL21(DE3), vector pCAV4; conditions: FIG. 7
HilD [2] = target: T1, HilD; assay: HilD half-life assay (western blot of HilD-3xFLAG); type: cell-based; set-up: expressed in transfected cells; host or cells: Salmonella Typhimurium 14028s derivative carrying PtetRA-hilD-3xFLAG, with Lon present or absent; conditions: Lon mutant (absence of Lon); 20 μM; FIG. 5A
[3] = hilD only: ΔrtsA ΔhilC, hilD under tetracycline-inducible promoter, 20 μM, FIG. 4C
[4] = chain length comparison, FIG. 1E
[5] = 10, 25, 50 and 75 μM fatty acid

T1 sequence (P0CL08 whole entry): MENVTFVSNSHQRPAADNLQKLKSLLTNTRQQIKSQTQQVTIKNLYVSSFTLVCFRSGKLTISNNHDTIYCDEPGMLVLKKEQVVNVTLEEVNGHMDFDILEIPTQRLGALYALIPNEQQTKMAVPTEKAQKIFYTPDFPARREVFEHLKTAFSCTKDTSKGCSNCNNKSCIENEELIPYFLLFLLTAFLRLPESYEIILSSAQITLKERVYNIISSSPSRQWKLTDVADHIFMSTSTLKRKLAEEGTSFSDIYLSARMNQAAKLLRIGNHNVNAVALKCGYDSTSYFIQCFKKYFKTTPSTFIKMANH
Sequence of HilC (P0CL09 whole entry): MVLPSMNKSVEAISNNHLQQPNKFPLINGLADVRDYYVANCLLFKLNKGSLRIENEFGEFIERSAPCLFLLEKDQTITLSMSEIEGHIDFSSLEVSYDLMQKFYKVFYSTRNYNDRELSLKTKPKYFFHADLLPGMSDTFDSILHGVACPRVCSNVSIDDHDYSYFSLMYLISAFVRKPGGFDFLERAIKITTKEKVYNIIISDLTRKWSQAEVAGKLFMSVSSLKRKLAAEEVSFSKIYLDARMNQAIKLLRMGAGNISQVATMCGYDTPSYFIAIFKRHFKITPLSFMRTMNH

## CCCCCCCC/C=C\CCCCCCCC(=O)O [oleic acid, cis-9-octadecenoic acid, reference compound]
hilA expression; [3]
  repression of hilA expression: 1.2 fold

## CCCCCCCCCCCCC/C=C\C(=O)O [c2-HDA, Cis-2-hexadecenoic acid]
hilA expression; 1 μM, FIG. 1B
  repression of hilA expression: 80 fold
hilA expression; [4]
  reduction of hilA expression: 159 fold
hilA expression; hilC only (tetracycline-inducible), null hilD and rtsA, FIG. 6B
  reduction of hilA expression: 20 fold
hilA expression; hilD mutant, FIG. 4A
  repression of hilA in a hilD mutant: modest repression
hilA expression; [3]
  repression of hilA expression: 78 fold
hilA expression; rtsA only (tetracycline-inducible), null hilD and hilC, FIG. 6A
  reduction of hilA expression: 13 fold
hilA expression; Δlon mutation, 20 μM, FIG. 5B
  repression of hilA expression: continued to repress hilA expression
sopB expression
  repression of sopB expression: 11 fold
HilC; 100 μM fatty acid
  binding of HilC to the hilA promoter: prevented binding to the hilA promoter
HilC; [5]
  binding of HilC to the hilA promoter: partially
RtsA; 100 μM fatty acid
  binding of RtsA to the hilA promoter: prevented binding to the hilA promoter
RtsA; [5]
  binding of RtsA to the hilA promoter: partially
HilD [1]; 20 μM fatty acid, 10 nM hilA promoter DNA
  binding of HilD to the hilA promoter: completely inhibited from binding hilA promoter DNA
HilD [1]; 1, 2, 5 and 10 μM fatty acid
  binding of HilD to the hilA promoter: partially
HilD [2]
  effect on HilD stability: no effect on its stability

## CCCCCCCCCCCCCCCCC/C=C\C(=O)O [cis-2-eicosenoic acid]
hilA expression; [4]
  reduction of hilA expression: 10 fold
hilA expression; [3]
  repression of hilA expression: 3 fold

## CCCCCCC/C=C\C(=O)O [cis-2-decenoic acid]
hilA expression; [4]
  reduction of hilA expression: 28%

## CCCCCCCCCCCCC/C=C\C(=O)OC [cis-2-hexadecenoic acid methyl ester, reference compound]
hilA expression; 20 μM methyl ester, FIG. 2A
  repression of hilA expression: not to significantly repress hilA expression

## CCCCCCCCC/C=C\C(=O)O [cis-2-dodecenoic acid]
hilA expression; [4]
  reduction of hilA expression: 3 fold

## CCCCCCCCCCCCCCCCC/C=C\C(=O)OC [cis-2-eicosenoic acid methyl ester, reference compound]
hilA expression; 40 μM methyl ester, FIG. 2B
  repression of hilA expression: not to significantly repress hilA expression

## CCCCCCCCCCCCC/C=C/C(=O)O [trans-2-hexadecenoic acid, reference compound]
hilA expression; FIG. 1A, 20 μM fatty acids per legend
  less potent in repressing hilA than the cis-isomer: 31 fold
